According to US20250179040A1, “HISTAMINE H3 RECEPTOR ANTAGONISTS AND THEIR PHARMACEUTICAL USES” (HANGZHOU BIO-SINCERITY PHARMA-TECH CO., LTD., priority 2022, published 2025):

What was measured:
histamine H3 receptor = histamine H3 receptor (Homo sapiens, UniProt Q9Y5N1); assay: FLPPR assay, antagonistic activity on histamine H3 receptor; assay type: cell-based; conditions: for inhibition at 0.005 µM: read-out: % Inh-AVERAGE @ 5 nM; for inhibition at 0.05 µM: read-out: % Inh-AVERAGE @ 50 nM
Description: The FLPPR assay (NIH Assay Guidance Manual: HTS Assay Validation-Section 4.3. Analysis (Potency), htpps://www.ncbi.nlm.nih.gov/books/NBK83783) was performed using SUVN-G3031 as a positive control, and 21 target compounds were tested for the antagonistic activity target to histamine H3 receptor.

hERG channel = hERG channel (Homo sapiens, UniProt Q12809); assay: in vitro; conditions: Average inhibition rate (%) on hERG channel
Chain of hERG channel (Q12809 whole entry): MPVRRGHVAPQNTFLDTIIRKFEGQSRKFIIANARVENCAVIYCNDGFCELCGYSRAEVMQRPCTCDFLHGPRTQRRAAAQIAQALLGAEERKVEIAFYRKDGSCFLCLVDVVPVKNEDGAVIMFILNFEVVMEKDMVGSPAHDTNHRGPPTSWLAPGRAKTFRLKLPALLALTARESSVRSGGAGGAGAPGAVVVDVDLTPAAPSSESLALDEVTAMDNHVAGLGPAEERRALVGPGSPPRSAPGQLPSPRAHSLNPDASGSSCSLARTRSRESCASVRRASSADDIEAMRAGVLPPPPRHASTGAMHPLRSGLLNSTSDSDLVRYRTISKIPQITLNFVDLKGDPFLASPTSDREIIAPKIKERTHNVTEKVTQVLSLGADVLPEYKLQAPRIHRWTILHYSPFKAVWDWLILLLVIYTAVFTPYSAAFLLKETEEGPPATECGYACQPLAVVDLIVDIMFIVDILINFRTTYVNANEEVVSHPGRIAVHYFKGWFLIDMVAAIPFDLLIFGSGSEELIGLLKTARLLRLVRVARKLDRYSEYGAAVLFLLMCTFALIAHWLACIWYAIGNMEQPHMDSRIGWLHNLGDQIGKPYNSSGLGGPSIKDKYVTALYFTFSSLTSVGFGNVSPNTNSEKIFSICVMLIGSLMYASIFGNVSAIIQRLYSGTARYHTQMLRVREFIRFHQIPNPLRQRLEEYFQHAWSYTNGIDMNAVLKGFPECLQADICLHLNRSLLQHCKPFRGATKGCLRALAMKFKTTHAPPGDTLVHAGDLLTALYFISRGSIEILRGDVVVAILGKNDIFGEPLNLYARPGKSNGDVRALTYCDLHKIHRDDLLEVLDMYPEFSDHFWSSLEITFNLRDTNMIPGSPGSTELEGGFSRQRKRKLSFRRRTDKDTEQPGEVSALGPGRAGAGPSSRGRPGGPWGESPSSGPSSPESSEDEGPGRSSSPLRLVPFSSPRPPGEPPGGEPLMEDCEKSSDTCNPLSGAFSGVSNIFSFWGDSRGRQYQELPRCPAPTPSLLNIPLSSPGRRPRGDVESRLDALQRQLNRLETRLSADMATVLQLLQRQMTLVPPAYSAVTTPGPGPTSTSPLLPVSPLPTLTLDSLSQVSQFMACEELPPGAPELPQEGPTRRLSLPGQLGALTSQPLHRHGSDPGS
Source text: In cardiomyocytes, inhibition of the delayed rectifier potassium current (IKr) channel protein encoded by the human Ether-a-go-go Related Gene (hERG) is the most important mechanism by which drugs lead to prolongation of the QT interval. hERG is characterized by a specific molecular structure, which allows it to be inhibited by different structures, leading to severe arrhythmias. Statistically, 25-40% of lead compounds show varying degrees of hERG-related toxicity. Therefore, early evaluation of the effects of compounds on hERG is crucial in the drug development process.
The inhibition rate of compounds on hERG channels was examined by manual membrane clamp technique on HEK293 cell line which is stably expressing hERG ion channels.

CCI model rats = assay: Analgesic effect, chronic constriction injury (CCI) model, mechanical withdrawal threshold; assay type: in vivo, SD rats
Source text: Exposing the sciatic nerve on male SD rats' (180-200 g) right hind leg, in the anterior segment where the sciatic nerve is about to bifurcate, use sterile chromic gut thread (No. 4, 0.15 mm in diameter) to ligate 4 loops loosely, with each loop 1-2 mm apart, and suture the muscle and skin to establish the chronic constriction injury (CCI) model. In the sham-operated group, only the sciatic nerve was exposed without ligation, and the muscle and skin were sutured. The mechanical withdrawal threshold was detected by electronic analgesia meter (IITC-2391) on the 7th day for 2 consecutive days.
The CCI model rats with stabilized mechanical withdrawal thresholds were randomly divided into five groups, named model group (model), pregabalin group (Pre, 30 mg/kg), BIOS-B-12 compound group (3 mg/kg), BIOS-B-12 compound group (1 mg/kg), and BIOS-B-12 compound group (0.3 mg/kg), and were administered at 1 mL/100 g by gavage, and the same column of saline was gavaged in Sham an model group. The basic value was determined before drug administration, and the mechanical withdrawal thresholds were detected at 0.5 h, 1 h, 2 h, 4 h, 6 h, and 24 h after a single drug administration, and the p value was calculated by ANOVA with T-test.
The CCI model rats with stabilized mechanical withdrawal thresholds were randomly divided into three groups, named model group (model), pregabalin group (Pre, 30 mg/kg), and BIOS-B-14 compound group (1 mg/kg), and were administered at 1 mL/100 g by gavage, and the same column of saline was gavaged in Sham and model group. The basic value was determined before drug administration, and the mechanical withdrawal thresholds were detected at 0.5 h, 1 h, 2 h, 4 h, and 6 h after a single drug administration, and the p value was calculated by ANOVA with T-test.

[1] = test system: histamine-induced scratching; assay: Antipruritic ability, histamine-induced scratching in mice; assay type: in vivo, C57BL/6J mice; conditions: for Inhibition Rate (%) of number of scratches: BIOS-B-12 10 mg/kg 4 h, BIOS-B-18 10 mg/kg 1 h, Dex 3 mg/kg 1 h before histamine 500 μg/50 μL s.c., observed 30 min, (Model-Compound)/Model×100%
Description: The C57BL/6J male mice, with 6-8 weeks old, were randomly divided into model group (Model), BIOS-B-12 compound group (10 mg/kg), BIOS-B-18 compound group (10 mg/kg) and dexamethasone group (Dex, 3 mg/kg), with 7 animals in each group. The mice were injected subcutaneously with 500 μg/50 μL histamine at the back of the neck after the administration of dexamethasone for 1 h, BIOS-B-12 for 4 h, and BIOS-B-18 for 1 h, respectively, and immediately observed for 30 min. The number of scratched was recorded and the inhibition rate was calculated as (Model-Compound)/Model×100%.

Chain of histamine H3 receptor (Q9Y5N1 whole entry, species assumed): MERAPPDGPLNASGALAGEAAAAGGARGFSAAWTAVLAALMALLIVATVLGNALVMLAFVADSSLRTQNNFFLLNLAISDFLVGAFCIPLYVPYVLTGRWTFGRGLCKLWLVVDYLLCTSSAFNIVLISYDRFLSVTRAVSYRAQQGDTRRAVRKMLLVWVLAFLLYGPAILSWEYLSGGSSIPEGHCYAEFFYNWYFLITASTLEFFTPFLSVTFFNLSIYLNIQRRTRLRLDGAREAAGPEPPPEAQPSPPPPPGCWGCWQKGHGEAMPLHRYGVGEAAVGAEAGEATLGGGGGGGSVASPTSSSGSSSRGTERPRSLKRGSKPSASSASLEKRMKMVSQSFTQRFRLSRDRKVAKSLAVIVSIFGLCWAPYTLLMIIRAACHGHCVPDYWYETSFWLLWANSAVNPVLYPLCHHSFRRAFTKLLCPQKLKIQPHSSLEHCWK

| Structure (SMILES) | inhibition at 0.005 µM (histamine H3 receptor) [%] | inhibition at 0.05 µM (histamine H3 receptor) [%] | inhibition at 10 µM (hERG channel) [%] | further results |
| --- | --- | --- | --- | --- |
| CN1CCCN(CC(=O)Nc2ccc(OC3CC(N4CCCCC4)C3)cc2)CC1 (stereo not shown) [BIOS-B-4, 2-(4-methyl-1,4-diazepan-1-yl)-N-(4-(3-(piperidin-1-yl)cyclobutoxy)phenyl)acetamide] | 101 | 100 |  |  |
| O=C(CN1CCNCC1)Nc1ccc(OC2CC(N3CCCCC3)C2)cc1 (stereo not shown) [BIOS-B-9, 2-(piperazin-1-yl)-N-(4-(3-(piperidin-1-yl)cyclobutoxy)phenyl)acetamide] | 101 | 99.6 | -1.03 |  |
| C[C@@H]1CCCN1CC(=O)Nc1ccc(OC2CC(N3CCCCC3)C2)cc1 (stereo partly drawn) [BIOS-B-2, (R)-2-(2-methylpyrrolidin-1-yl)-N-(4-(3-(piperidin-1-yl)cyclobutoxy)phenyl)acetamide] | 100 | 100 |  |  |
| O=C(NCCN1CCC(O)CC1)Nc1ccc(OC2CC(N3CCCCC3)C2)cc1 (stereo not shown) [BIOS-B-19, 1-(2-(4-hydroxypiperidin-1-yl)ethyl)-3-(4-(3-(piperidin-1-yl)cyclobutoxy)phenyl)urea] | 101 | 101 | -0.09 |  |
| O=C(CN1CCCC(CCO)C1)Nc1ccc(OC2CC(N3CCCCC3)C2)cc1 (stereo not shown) [BIOS-B-8, 2-(3-(2-hydroxyethyl)piperidin-1-yl)-N-(4-(3-(piperidin-1-yl)cyclobutoxy)phenyl)acetamide] | 101 | 99.5 | 4.82 |  |
| O=C(CN1CCOCC1)Nc1ccc(OC2CC(N3CCCCC3)C2)cc1 (stereo not shown) [BIOS-B-1, 2-morpholino-N-(4-(3-(piperidin-1-yl)cyclobutoxy)phenyl)acetamide] | 91.7 | 100 | 8.54 |  |
| C[C@@H]1CCCN1CCNC(=O)Nc1ccc(OC2CC(N3CCCCC3)C2)cc1 (stereo partly drawn) [BIOS-B-14, (R)-1-(2-(2-methylpyrrolidin-1-yl)ethyl)-3-(4-(3-(piperidin-1-yl)cyclobutoxy)phenyl)urea] | 100 | 101 | 0.17 | mechanical withdrawal thresholds vs model group (CCI model rats; 1 mg/kg single dose by gavage, 0.5 h to 5 h after administration, P<0.05, FIG. 2): significantly increased; period of analgesia time compared with pregabalin (CCI model rats; BIOS-B-14 1 mg/kg vs pregabalin 30 mg/kg, FIG. 2 study): longer period of analgesia time than that of pregabalin |
| O=C(NCCN1CCCCC1)Nc1ccc(OC2CC(N3CCCCC3)C2)cc1 (stereo not shown) [BIOS-B-15, 1-(4-(3-(piperidin-1-yl)cyclobutoxy)phenyl)-3-(2-(piperidin-1-yl)ethyl)urea] | 99 | 100 | -0.12 |  |
| O=C(NCCN1CCCC(O)C1)Nc1ccc(OC2CC(N3CCCCC3)C2)cc1 (stereo not shown) [BIOS-B-23, 1-(2-(3-hydroxypiperidin-1-yl)ethyl)-3-(4-(3-(piperidin-1-yl)cyclobutoxy)phenyl)urea] | 100 | 100 | 0.37 |  |
| O=C(CN1CCC(F)(F)CC1)Nc1ccc(OC2CC(N3CCCCC3)C2)cc1 (stereo not shown) [BIOS-B-5, 2-(4,4-difluoropiperidin-1-yl)-N-(4-(3-(piperidin-1-yl)cyclobutoxy)phenyl)acetamide] | 98.9 | 99.9 |  |  |
| O=C(NCCN1CCSCC1)Nc1ccc(OC2CC(N3CCCCC3)C2)cc1 (stereo not shown) [BIOS-B-20, 1-(4-(3-(piperidin-1-yl)cyclobutoxy)phenyl)-3-(2-thiomorpholinoethyl)urea] | 100 | 101 | -0.66 |  |
| O=C(CN1CCOCC1)Nc1ccc(OC2CCN(C3CCC3)CC2)cc1 [SUVN-G3031, Samelisant, reference compound] | 57.8 | 85.8 |  |  |
| CC(C)C[C@H](CN)CC(=O)O [Pregabalin, pregabalin, reference compound] |  |  |  | mechanical withdrawal thresholds vs model group (CCI model rats; 30 mg/kg single dose by gavage, only from 0.5 h to 1 h after administration, FIG. 2 study): significantly different; mechanical withdrawal thresholds vs model group (CCI model rats; 30 mg/kg single dose by gavage, only from 0.5 h to 2 h after administration, FIG. 1 study): significantly different |
| O=C(CN1CCC(O)CC1)Nc1ccc(OC2CC(N3CCCCC3)C2)cc1 (stereo not shown) [BIOS-B-6, 2-(4-hydroxypiperidin-1-yl)-N-(4-(3-(piperidin-1-yl)cyclobutoxy)phenyl)acetamide] | 103 | 99.8 |  |  |
| O=C(CN1CCCCC1)Nc1ccc(OC2CC(N3CCCCC3)C2)cc1 (stereo not shown) [BIOS-B-3, 2-(piperidin-1-yl)-N-(4-(3-(piperidin-1-yl)cyclobutoxy)phenyl)acetamide] | 95.6 | 99.4 |  |  |
| CN1CCN(CCNC(=O)Nc2ccc(OC3CC(N4CCCCC4)C3)cc2)CC1 (stereo not shown) [BIOS-B-22, 1-(2-(4-methylpiperazin-1-yl)ethyl)-3-(4-(3-(piperidin-1-yl)cyclobutoxy)phenyl)urea] | 101 | 99.5 | -2.43 |  |
| O=C(NCCN1CCOCC1)Nc1ccc(OC2CC(N3CCCCC3)C2)cc1 (stereo not shown) [BIOS-B-13, 1-(2-morpholinoethyl)-3-(4-(3-(piperidin-1-yl)cyclobutoxy)phenyl)urea] | 99.6 | 99.8 | -1.47 |  |
| O=C(CN1CCSCC1)Nc1ccc(OC2CC(N3CCCCC3)C2)cc1 (stereo not shown) [BIOS-B-7, N-(4-(3-(piperidin-1-yl)cyclobutoxy)phenyl)-2-thiomorpholinoacetamide] | 88.3 | 99.5 |  |  |
| CN1CCN(CC(=O)Nc2ccc(OC3CC(N4CCCCC4)C3)cc2)CC1 (stereo not shown) [BIOS-B-10, 2-(4-methylpiperazin-1-yl)-N-(4-(3-(piperidin-1-yl)cyclobutoxy)phenyl)acetamide] | 99.5 | 97.5 | -1.26 |  |
| C[C@@H]1C[C@H]2[C@@H]3CCC4=CC(=O)C=C[C@]4(C)[C@@]3(F)[C@@H](O)C[C@]2(C)[C@@]1(O)C(=O)CO [Dex, dexamethasone, reference compound] |  |  |  | Inhibition Rate (%) of number of scratches [1]: 29.3% |
| O=C(NCCN1CCC(F)(F)CC1)Nc1ccc(OC2CC(N3CCCCC3)C2)cc1 (stereo not shown) [BIOS-B-18, 1-(2-(4,4-difluoropiperidin-1-yl)ethyl)-3-(4-(3-(piperidin-1-yl)cyclobutoxy)phenyl)urea] | 99.7 | 99.9 | -0.65 | number of histamine-induced scratched in mice ([1]; 10 mg/kg): reduced; antipruritic effect compared with positive control dexamethasone ([1]; 10 mg/kg vs dexamethasone 3 mg/kg): more effective than the positive control; Inhibition Rate (%) of number of scratches [1]: 55.0% |
| CN1CCCN(CCNC(=O)Nc2ccc(OC3CC(N4CCCCC4)C3)cc2)CC1 (stereo not shown) [BIOS-B-17, 1-(2-(4-methyl-1,4-diazepan-1-yl)ethyl)-3-(4-(3-(piperidin-1-yl)cyclobutoxy)phenyl)urea] | 101 | 99.4 | 1.52 |  |
| O=C(CN1CCCC(O)C1)Nc1ccc(OC2CC(N3CCCCC3)C2)cc1 (stereo not shown) [BIOS-B-11, 2-(3-hydroxypiperidin-1-yl)-N-(4-(3-(piperidin-1-yl)cyclobutoxy)phenyl)acetamide] | 97 | 99.4 | 2.96 |  |
